Measured values as given in BindingDB's records for doi:10.1021/acs.jmedchem.6b00965 (University of Iowa, 2017).

What was measured:
[1] = Activation of BTN3A1 in human Vgamma9Vdelta2 T cells assessed as induction of interleukin 2 stimulated cell proliferation treated for 72 hrs measured on day 11 post last treatment by flow cytometry
[2] = Activation of BTN3A1 in human Vgamma9Vdelta2 T cells assessed as induction of T effector cells mediated K562 cell lysis preincubated with K562 cells for 2 hrs followed by T effector cell addition measured after 4 hrs
[3] = molecular target: T1, Butyrophilin subfamily 3 member A1 (Homo sapiens, UniProt O00481); experiment: Activation of BTN3A1 in human Vgamma9Vdelta2 T cells assessed as induction of T effector cells mediated K562 cell lysis preincubated with K562 cells for 2 hrs followed by T effector cell addition measured after 4 hrs
T1 sequence (O00481 whole entry): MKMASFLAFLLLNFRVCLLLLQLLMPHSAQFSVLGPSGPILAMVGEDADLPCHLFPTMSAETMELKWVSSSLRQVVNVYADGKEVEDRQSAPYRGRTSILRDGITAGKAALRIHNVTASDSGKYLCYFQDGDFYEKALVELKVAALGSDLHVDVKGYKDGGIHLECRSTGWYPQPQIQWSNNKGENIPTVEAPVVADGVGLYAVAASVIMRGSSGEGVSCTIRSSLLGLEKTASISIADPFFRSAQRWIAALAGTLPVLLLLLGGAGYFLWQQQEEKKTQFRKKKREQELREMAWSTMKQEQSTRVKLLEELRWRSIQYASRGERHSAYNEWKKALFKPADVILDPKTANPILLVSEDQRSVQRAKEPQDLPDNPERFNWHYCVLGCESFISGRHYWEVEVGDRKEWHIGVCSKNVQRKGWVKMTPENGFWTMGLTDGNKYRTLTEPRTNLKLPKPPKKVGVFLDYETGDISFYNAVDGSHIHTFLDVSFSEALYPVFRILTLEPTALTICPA

[4] = molecular target: T1, Butyrophilin subfamily 3 member A1; experiment: Activation of BTN3A1 in human Vgamma9Vdelta2 T cells assessed as induction of interleukin 2 stimulated cell proliferation treated for 72 hrs measured on day 11 post last treatment by flow cytometry

SMILES: COP(=O)(CC/C=C(\C)CO)CP(=O)(OC)OC (stereo not drawn)
- EC50 [1]: > 100 µM
- EC50 [2]: > 100 µM

SMILES: CC(C)=CCCP(=O)(CP(=O)(OCOC(=O)C(C)(C)C)OCOC(=O)C(C)(C)C)OCOC(=O)C(C)(C)C (stereo not drawn)
- EC50 [1]: > 100 µM
- EC50 [2]: 7.3 µM

SMILES: C/C(=C\CCP(=O)(CP(=O)(OCOC(=O)C(C)(C)C)OCOC(=O)C(C)(C)C)OCOC(=O)C(C)(C)C)CO (stereo not drawn)
- EC50 [2]: 0.28 µM

SMILES: CC(=CCCP(=O)(O)CP(=O)(O)O)CO
- EC50 [2]: 41 µM

SMILES: [C]C([C])=[C][C][C]P(=O)(O)[C]P(=O)(O)O
- EC50 [3]: > 100 µM
- EC50 [4]: > 100 µM
